Results from US5093327A, “Inhibition of HIV and other retroviruses by polyoxoanions” (Du Pont Merck Pharmaceutical Company, priority 1991, dated 1992).
≈ marks a conversion by molar mass, not a printed value.

Legend:
FLV [1] = test: Compound 1/Poly-I:C combination therapy against FLV-induced splenomegaly; assay type: in vivo, mice; settings: for reduction of splenomegaly: individual dosing
Description: (§1) Female Balb/c mice are infected intraperitoneally with 0.2 ml of FLV suspension at a concentration predetermined to induce spleen weights of 1-2 grams in vehicle-treated control mice at 21 days post-infection. Beginning 24 hours post-infection, mice (10/group) are treated with 10-100 mg/kg of test compound in Sterile Normal Saline for injection (USP) as a carrier for either intraperitoneal, subcutaneous, intravenous or oral route administration. Treatment is given once a day, continuing through 7 days post-infection. AZT is used as a positive control compound. Uninfected, vehicle-treated mice serve as normal spleen controls, while virus-infected, vehicle-treated mice serve as infected spleen controls. At 21 days post-infection the mice are sacrificed and spleens are surgically excised and weighed. Results are expressed as Treated/Control (T/C), where control represents the means spleen weight of FLV-infected, vehicle-treated mice and is arbitrarily set to 1.0. The doses of test compounds required to inhibit virus-induced splenomegaly by 50% (ED50) are shown in Table 1 as compared to AZT the control compound.
FLV-infected mice are treated with compound 1 (1.25-20.00 mg/kg S.C. daily x 7d beginning one day post-infection alone or in combination with Poly-I:C (0.31-5.0 mg/kg ip daily x 7d beginning one day post-infection. Results are shown in Table 4.

HIV-IIIB in ATH8 cells = test: HIV Infectivity Assay in ATH8 Cells (50% protection from virus-induced cytopathogenesis); assay type: cell-based; settings: for HIV Infectivity ATH8 IC50: ATH8 cells, HIV-IIIB, 10 days
[2] = system: Friend leukemia virus (FLV); test: Splenomegaly assay for quantitation of Friend leukemia virus (FLV) in vivo; design: species or system Female Balb/c mice; settings: for FLV In Vivo ED50: 50% inhibition of virus-induced splenomegaly, once a day through 7 days post-infection, 30240 min
[3] = system: Friend leukemia virus (FLV); test: XC plaque assay for quantitation of Friend leukemia virus (FLV) in vitro; assay type: cell-based; settings: for FLV In Vitro IC50: XC plaque formation
[4] = system: Rauscher leukemia virus (RLV); test: Splenomegaly assay for quantitation of Rauscher leukemia virus (RLV) in vivo; design: species or system Female BALB/c mice; settings: 50% inhibition of virus-induced splenomegaly, ip, once a day through 14 days post-infection; 30240 min
Text: Treatment is given once a day, continuing through 14 days post-infection. Ribavirin is used as a positive control compound. Uninfected, vehicle-treated mice serve as normal spleen controls, while infected, vehicle-treated mice serve as infected spleen controls. At 21 days post-infection the mice are sacrificed and spleens are surgically excised and weighed.

[5] = system: HIV-IIIB in H9 cells (reverse transcriptase); test: HIV Infectivity Assay in H9 Cells (HIV reverse transcriptase production); assay type: cell-based; settings: day 10
LPBM-5 = test: Activity against LPBM-5 in vivo
FLV [6] = test: Alternate dosing regimen with combination therapy with AZT against FLV-induced splenomegaly; assay type: in vivo, mice
SIV = test: Activity against SIV; assay type: cell-based
FLV [7] = test: Combination therapy with AZT against FLV-induced splenomegaly; assay type: in vivo, mice
Description: as §1
Since AZT is currently approved for the clinical treatment of HIV/AIDS, a combination therapy of AZT and the compounds of the present invention for the treatment of retrovirus and, particularly HIV/AIDS, may be a favorable alternative treatment plan. In order to determine how effective the compounds would be if given together, the following study was done.
FLV-infected mice are treated with compound 1 (0.8-20 mg/kg), alone or in combination with AZT (8-200 mg/kg). Starting one day post-infection compounds are given once daily for seven days. Compound 1 is administered subcutaneously (sc) while AZT is administered intraperitoneally (ip) in order not to physically mix the compounds at the same site.

Q: For “PolyInosinic-PolyCytidylic Acid [Poly-I:C, reference compound]”, which “T/C (spleen weight)” value (FLV [1]; Poly-I:C 0.31 mg/kg ip daily x 7 d, Cpd 1 0) is on record?
A: The value was 1.2.

Q: What about the “T/C (spleen weight)” value (FLV [1]; Poly-I:C 1.25 mg/kg ip daily x 7 d, Cpd 1 0) of the same compound?
A: Its value is 1.1.

Q: What about the “T/C (spleen weight)” value (FLV [1]; Poly-I:C 5.0 mg/kg ip daily x 7 d, Cpd 1 0) of the same compound?
A: The value was 0.39.

Q: And the reduction of splenomegaly (FLV [1]; Poly-I:C 5 mg/kg)?
A: Its reduction of splenomegaly is 60%.

Q: Which results are given for “K9 (NH4)H2 [Compound 8, K9 (NH4)H2 [(OCe)3 (PW9 O34)2]]”?
A: HIV Infectivity ATH8 IC50 (HIV-IIIB in ATH8 cells): 1.0 µg/mL; FLV In Vivo ED50 [2]: 10 to 20 mg/kg; FLV In Vitro IC50 [3]: 10 µg/mL

Q: Na12 [Compound 7, Na12 [P2 W15 O62]] was tested. Which “HIV Infectivity ATH8 IC50” value (HIV-IIIB in ATH8 cells) did it give?
A: Its value is 2.6 µg/mL.

Q: What about the “FLV In Vivo ED50” value [2] of the same compound?
A: Its value is greater than 20 mg/kg.

Q: For K7 [Compound 6, K7 [PTi2 W10 O40]], which “HIV Infectivity ATH8 IC50” value (HIV-IIIB in ATH8 cells) is on record?
A: The value was 5.6 µg/mL.

Q: What about the “FLV In Vivo ED50” value [2] of the same compound?
A: Its value is “IA (Inactive)”.

Q: And the “FLV In Vitro IC50” value [3]?
A: Its value is 5 µg/mL.

Q: How did the “RLV In Vivo ED50” value [4] turn out when K6 [Compound 1, K6 [BVW11 O40]] was run?
A: The value was 10 to 20 mg/kg.

Q: What about the “HIV Infectivity ATH8 IC50” value (HIV-IIIB in ATH8 cells) of the same compound?
A: The value was 1.0 µg/mL.

Q: And the “HIV Infectivity RT/H9 IC50” value [5]?
A: The value was less than 10 µg/mL.

Q: What about the “ED50 against LPBM-5 in vivo” value (LPBM-5) of the same compound?
A: The value was 10 to 20 mg/kg.

Q: And the “T/C (spleen weight)” value (FLV [6]; Cpd 1 80 mg/kg S.C. days 1 & 10, AZT 0)?
A: Its value is 0.21.

Q: What about the “T/C (spleen weight)” value (FLV [6]; Cpd 1 80 mg/kg S.C. days 1 & 14, AZT 0) of the same compound?
A: Its value is 0.17.

Q: What about the “T/C (spleen weight)” value (FLV [6]; Cpd 1 80 mg/kg S.C. days 1 & 17, AZT 0) of the same compound?
A: The value was 0.5.

Q: What about the “efficacy of two doses administered alone” value (FLV [6]; two doses of compound 1 alone, 10-17 days apart) of the same compound?
A: Its value is “efficacious”.

Q: What about the “IC50 against SIV” value (SIV) of the same compound?
A: The value was less than 1 µg/mL.

Q: What about the “FLV In Vivo ED50” value [2] of the same compound?
A: Its value is 10 to 20 mg/kg.

Q: What about the “T/C (spleen weight)” value (FLV [1]; Cpd 1 1.25 mg/kg S.C. daily x 7 days, Poly-I:C 0) of the same compound?
A: Its value is 0.8.

Q: What about the “T/C (spleen weight)” value (FLV [1]; Cpd 1 5.0 mg/kg S.C. daily x 7 days, Poly-I:C 0) of the same compound?
A: Its value is 0.58.

Q: And the “T/C (spleen weight)” value (FLV [1]; Cpd 1 20.0 mg/kg S.C. daily x 7 days, Poly-I:C 0)?
A: Its value is 0.33.

Q: And the reduction of splenomegaly (FLV [1]; compound 1 20 mg/kg)?
A: Its reduction of splenomegaly is 60%.

Q: What about the “T/C (spleen weight)” value (FLV [7]; Cpd 1 0.8 mg/kg sc, AZT 0, days 1-7) of the same compound?
A: The value was 1.0.

Q: And the “T/C (spleen weight)” value (FLV [7]; Cpd 1 4.0 mg/kg sc, AZT 0, days 1-7)?
A: The value was 0.94.

Q: And the “T/C (spleen weight)” value (FLV [7]; Cpd 1 20.0 mg/kg sc, AZT 0, days 1-7)?
A: The value was 0.52.

Q: What about the “percent reduction in splenomegaly” value (FLV [7]; compound 1 alone at 20 mg/kg) of the same compound?
A: Its value is “about 50%”.

Q: What about the “FLV In Vitro IC50” value [3] of the same compound?
A: Its value is 1 µg/mL.

Q: With K7 [Compound 3, K7 [BV^IV W11 O40]] as the compound, how does the “HIV Infectivity ATH8 IC50” value (HIV-IIIB in ATH8 cells) read?
A: Its value is 1.5 µg/mL.

Q: What about the “HIV Infectivity RT/H9 IC50” value [5] of the same compound?
A: Its value is less than 10 µg/mL.

Q: What about the “FLV In Vivo ED50” value [2] of the same compound?
A: Its value is 7.5 mg/kg.

Q: And the “FLV In Vitro IC50” value [3]?
A: Its value is 0.1 µg/mL.

Q: “1,2-K5 [Compound 2, 1,2-K5 [PV2 W10 O40]]” was tested. Which “RLV In Vivo ED50” value [4] did it give?
A: The value was 15 to 20 mg/kg.

Q: And the “HIV Infectivity ATH8 IC50” value (HIV-IIIB in ATH8 cells)?
A: Its value is 1.0 µg/mL.

Q: And the “HIV Infectivity RT/H9 IC50” value [5]?
A: Its value is less than 10 µg/mL.

Q: What about the “FLV In Vivo ED50” value [2] of the same compound?
A: The value was 10 to 20 mg/kg.

Q: And the “FLV In Vitro IC50” value [3]?
A: The value was 2.5 µg/mL.

Q: With `Cc1cn([C@H]2C[C@H](N=[N+]=[N-])[C@@H](CO)O2)c(=O)[nH]c1=O` [AZT, 3'-Azido-3'-deoxythymidine, reference compound] as the compound, how does the IC50 (HIV-IIIB in ATH8 cells; Human immunodeficiency virus 1, IIIB, ATH-8, 240 h, read-out: HIV Infectivity ATH8 IC50) read?
A: The IC50 was 0.005 µg/mL (≈ 0.0187 µM).

Q: What about the “in vitro potency of AZT relative to the polyoxoanions” value (HIV-IIIB in ATH8 cells; in vitro, data in Table 1) of the same compound?
A: Its value is “more potent in vitro than the polyoxoanions of the present invention”.

Q: And the “T/C (spleen weight)” value (FLV [6]; AZT 12.5 mg/kg ip daily x 7 days, no Cpd 1 (Control))?
A: The value was 0.93.

Q: What about the “T/C (spleen weight)” value (FLV [6]; AZT 50 mg/kg ip daily x 7 days, no Cpd 1 (Control)) of the same compound?
A: The value was 0.71.

Q: What about the “T/C (spleen weight)” value (FLV [6]; AZT 200 mg/kg ip daily x 7 days, no Cpd 1 (Control)) of the same compound?
A: The value was 0.45.

Q: And the reduction in splenomegaly (FLV [6]; AZT alone)?
A: The reduction in splenomegaly was 30-50%.

Q: What about the ED50 ([2]; Mus musculus, 504 h, read-out: FLV In Vivo ED50) of the same compound?
A: The ED50 was 100 mg/kg.

Q: What about the “T/C (spleen weight)” value (FLV [7]; AZT 8 mg/kg ip, Cpd 1 0, days 1-7) of the same compound?
A: The value was 0.83.

Q: And the “T/C (spleen weight)” value (FLV [7]; AZT 40 mg/kg ip, Cpd 1 0, days 1-7)?
A: The value was 0.69.

Q: What about the “T/C (spleen weight)” value (FLV [7]; AZT 200 mg/kg ip, Cpd 1 0, days 1-7) of the same compound?
A: Its value is 0.46.

Q: And the “percent reduction in splenomegaly” value (FLV [7]; AZT alone at 200 mg/kg)?
A: The value was “about 50%”.

Q: And the IC50 ([3]; read-out: FLV In Vitro IC50)?
A: The IC50 was 0.005 µg/mL (≈ 0.0187 µM).

Q: For K6 [Compound 5, K6 [SiTiW11 O40]], which “HIV Infectivity ATH8 IC50” value (HIV-IIIB in ATH8 cells) is on record?
A: The value was 3.2 µg/mL.

Q: And the “FLV In Vivo ED50” value [2]?
A: The value was 20 mg/kg.

Q: And the “FLV In Vitro IC50” value [3]?
A: The value was 3 µg/mL.

Q: What does the source list for β-Cs5 [Compound 4, β-Cs5 [PV2 W10 O40]]?
A: HIV Infectivity ATH8 IC50 (HIV-IIIB in ATH8 cells): 1.6 µg/mL; HIV Infectivity RT/H9 IC50 [5]: < 10 µg/mL; FLV In Vivo ED50 [2]: 10 to 20 mg/kg; FLV In Vitro IC50 [3]: 7 µg/mL
